Reference: patent publication US20240270809A1, “ORAL GLP RECEPTOR AGONISTS” (priority 2020, published 2024)
Positions of bridges follow the written chain, without caps; N, C: chain ends. Non-standard residues stand in square brackets, D forms with d. Residues, ends and D or L forms follow the SMILES beside them. *: point of attachment. Malonyl(2,2-Me2,histaminyl) = CC(C)(C(=O)NCCc1cnc[nH]1)C(=O)*; Ala(1H-tetrazol-5-yl) = N[C@@H](Cc1nnn[nH]1)C(=O)O; αMePhe(2-F) = C[C@](N)(Cc1ccccc1F)C(=O)O; αMeL = CC(C)C[C@](C)(N)C(=O)O; Nle = CCCC[C@H](N)C(=O)O; Aib = CC(C)(N)C(=O)O

Legend:
human GLP2 receptor = molecular target: T1, human GLP2 receptor (Homo sapiens, UniProt O95838); assay: cAMP accumulation assay, functional agonism of human GLP2 receptor; type: cell-based; conditions: HEK cells infected with human GLP2 receptor BacMam virus, HTRF cAMP; for Emax: HEK293, read-out: Human GLP-2R agonist cAMP Emax; for EC50: read-out: Human GLP-2R agonist cAMP pEC50 (converted)
T1 construct: expressed in transfected cells; host or cells: HEK cells, BacMam virus transduction
T1 sequence (O95838 1-553): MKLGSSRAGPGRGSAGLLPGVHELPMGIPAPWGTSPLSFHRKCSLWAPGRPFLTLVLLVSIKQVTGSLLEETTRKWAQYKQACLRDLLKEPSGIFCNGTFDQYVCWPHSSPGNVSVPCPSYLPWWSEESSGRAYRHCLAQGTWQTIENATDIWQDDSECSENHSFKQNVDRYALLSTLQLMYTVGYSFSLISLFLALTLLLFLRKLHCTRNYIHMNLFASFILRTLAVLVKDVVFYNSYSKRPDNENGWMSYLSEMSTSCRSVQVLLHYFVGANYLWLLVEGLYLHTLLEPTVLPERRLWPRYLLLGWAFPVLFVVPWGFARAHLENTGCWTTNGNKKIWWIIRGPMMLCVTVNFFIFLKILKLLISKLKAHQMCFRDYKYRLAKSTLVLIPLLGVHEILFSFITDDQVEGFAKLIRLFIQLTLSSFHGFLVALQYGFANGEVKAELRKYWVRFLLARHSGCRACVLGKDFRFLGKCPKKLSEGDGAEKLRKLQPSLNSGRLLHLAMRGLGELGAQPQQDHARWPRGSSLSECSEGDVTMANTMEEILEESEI
In short: (§1)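 HTRF cAMP read-out: HEK cells expressing GLP1 or GLP2 receptor via 24 h BacMam infection, frozen before use; agonist exposure 45 min, 37° C, HBSS + 0.5 mM IBMX; stopped with detection reagents in lysis buffer.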

human GLP1 receptor = molecular target: T2, human GLP1 receptor (Homo sapiens, UniProt P43220); assay: cAMP accumulation assay, functional agonism of human GLP1 receptor; type: cell-based; conditions: HEK cells infected with human GLP1 receptor BacMam virus, HTRF cAMP; for Emax: HEK293, read-out: Human GLP-1R agonist cAMP Emax; for EC50: read-out: Human GLP-1R agonist cAMP pEC50 (converted)
T2 construct: expressed in transfected cells; host or cells: HEK cells, BacMam virus transduction
T2 sequence (P43220 24-463): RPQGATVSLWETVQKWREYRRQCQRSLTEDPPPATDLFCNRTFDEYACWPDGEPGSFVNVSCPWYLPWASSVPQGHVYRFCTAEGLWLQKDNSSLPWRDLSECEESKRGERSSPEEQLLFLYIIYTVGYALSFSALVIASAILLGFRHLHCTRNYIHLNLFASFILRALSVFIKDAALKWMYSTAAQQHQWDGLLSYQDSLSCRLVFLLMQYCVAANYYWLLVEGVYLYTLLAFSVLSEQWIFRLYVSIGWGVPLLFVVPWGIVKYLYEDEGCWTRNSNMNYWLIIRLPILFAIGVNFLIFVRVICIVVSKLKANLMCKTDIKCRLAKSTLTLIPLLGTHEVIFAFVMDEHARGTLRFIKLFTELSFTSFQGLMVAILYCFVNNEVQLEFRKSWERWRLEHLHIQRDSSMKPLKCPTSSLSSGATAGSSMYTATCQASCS
In short: as §1

[1] = Stability of peptides in Fasted-State Simulated Intestinal Fluid (FaSSIF); type: in vitro ADME; conditions: FaSSIF with 10 mg/ml pancreatin, 37° C.
Protocol: Stability of peptides was tested in Fasted-State Simulated Intestinal Fluid (FaSSIF) prepared according to manufacturer's protocol (Biorelevant, art.no. FFF01, pH 6.5). […] FaSSIF was pre-incubated for 15 min at 37° C. and spiked with test and reference item working solutions. Experiments were conducted in duplicate in a non-serial manner. The total incubation volume per replicate was 150 μl. Sampling time points for test items were 0, 0.5, 2, 5, 10, 15 and 30 min. All samples and calibration standards (prepared in FaSSIF) were precipitated by addition of 300 μl precipitant (ACN / 2% acetic acid / 0.2% HFBA, (precipitation reagent, PR)) containing internal standard (ISTD) to 150 μl sample. After incubation for 1 h at room temperature all samples were centrifuged for 10 min at 2,200×g (room temperature).

mouse GLP2 receptor = molecular target: T3, mouse GLP2 receptor (Mus musculus, UniProt Q5IXF8); assay: cAMP accumulation assay, functional agonism of mouse GLP2 receptor; type: cell-based; conditions: HEK cells transiently transfected with mouse GLP2 receptor, HTRF cAMP; for Emax: HEK293, read-out: Mouse GLP-2R agonist cAMP Emax; for EC50: read-out: Mouse GLP-2R agonist cAMP pEC50 (converted)
T3 construct: expressed in transfected cells; host or cells: HEK cells, transient transfection with GeneJuice
T3 sequence (Q5IXF8 1-512): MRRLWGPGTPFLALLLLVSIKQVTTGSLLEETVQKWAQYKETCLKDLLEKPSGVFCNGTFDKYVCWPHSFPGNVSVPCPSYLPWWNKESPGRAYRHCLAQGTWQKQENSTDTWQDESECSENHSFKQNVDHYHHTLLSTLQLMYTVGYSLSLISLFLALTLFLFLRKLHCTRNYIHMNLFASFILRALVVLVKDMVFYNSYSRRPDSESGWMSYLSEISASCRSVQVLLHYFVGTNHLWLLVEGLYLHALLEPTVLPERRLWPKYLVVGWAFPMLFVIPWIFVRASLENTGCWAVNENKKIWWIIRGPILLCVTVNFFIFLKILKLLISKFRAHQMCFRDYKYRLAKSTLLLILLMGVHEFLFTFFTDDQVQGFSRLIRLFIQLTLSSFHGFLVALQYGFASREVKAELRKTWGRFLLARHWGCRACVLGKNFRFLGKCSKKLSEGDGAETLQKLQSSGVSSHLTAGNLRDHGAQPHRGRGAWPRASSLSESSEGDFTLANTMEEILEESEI
Protocol: CAMP production upon agonist stimulation of mouse GLP2 or GLP1 receptors was assessed utilizing HiRange cAMP kit (Cisbio). In brief, HEK cells were transiently transfected for 24 hours with cDNA using GeneJuice Transfection reagent (EMD Millipore) and frozen at −80° C. for later use in the assay. On the day, various concentrations of compounds were dispensed using ECHO-555 (LabCyte) to a total volume of 100 nl into a low volume 384-well Proxi plate (Perkin Elmer) followed by addition of 10 μl of cell suspension delivering 8000 cells per well. Cells were prepared in the assay buffer (HBSS (Lonza) supplemented with 0.5 mM IBMX (Tocris)). After 45 min incubation at 37° C., the reaction was stopped by addition of the HTRF detection reagents in the lysis buffer provided in the kit. Following 1-hour incubation at RT, plates were read on Pherastar FS (BMG Labtech, Inc.) using standard HTRF settings. Dotmatics Studies software was used for calculation of pEC50 values by fitting data to a four-parameter concentration response curve.

Row | SMILES | Emax (human GLP2 receptor) | Emax (human GLP1 receptor) | remaining at 0.5 h ([1]; t=30 mins, pH 6.5, 10 mg/ml pancreatin) | EC50 (human GLP2 receptor) | EC50 (human GLP1 receptor) | remaining at 0.25 h ([1]; FaSSIF pH 6.5 with 10 mg/ml pancreatin, t = 15 mins) | Emax (mouse GLP2 receptor) | EC50 (mouse GLP2 receptor)
1 | CCCC[C@H](NC(=O)[C@H](CCC(=O)O)NC(=O)[C@@H]1CC(=O)NCCCC[C@H](NC(=O)[C@H](CC(=O)O)NC(=O)C(C)(C)C(=O)NCCc2c[nH]cn2)C(=O)N[C@@H](CO)C(=O)N[C@@](C)(Cc2ccccc2F)C(=O)N[C@@H](CO)C(=O)N1)C(=O)N[C@H](Cc1ccccc1)C(=O)N[C@H](C(=O)N[C@@](C)(CC(C)C)C(=O)N[C@@H](CC(C)C)C(=O)N[C@@H](CC(=O)O)C(=O)N[C@H]1CCC(=O)NCCCC[C@@H](C(=O)N[C@@H](CC(=O)O)C(=O)N[C@@H](Cc2ccccc2)C(=O)N[C@H](C(=O)N[C@H]2CCC(=O)NCCCC[C@@H](C(=O)N[C@H]3CCC(=O)NCCCC[C@@H](C(N)=O)NC(=O)[C@H]([C@@H](C)O)NC(=O)[C@H]([C@@H](C)CC)NC(=O)[C@H](CCCCN)NC3=O)NC(=O)[C@H]([C@@H](C)CC)NC(=O)[C@H](CC(C)C)NC(=O)[C@H](Cc3c[nH]c4ccccc34)NC2=O)[C@@H](C)CC)NC(=O)[C@H](C)NC(=O)[C@H](C)NC(=O)[C@H](CCCCN)NC1=O)[C@@H](C)O [Example 65] ({Malonyl(2,2-Me2,histaminyl)}-DKS[αMePhe(2-F)]SDE[Nle][dF]T[αMeL]LDEKAAKDFIEWLIKEKITK-NH2; lactam 2-6, 14-18, 22-26, 27-31 (inferred); C-terminus assumed) | 102% | 97.9% | – | 0.0398 nM | 0.0398 nM | – | 86.3% | 6.31 nM
2 | CCCC[C@H](NC(=O)[C@H](CCC(=O)O)NC(=O)[C@@H]1CC(=O)NCCCC[C@H](NC(=O)[C@H](CC(=O)O)NC(=O)C(C)(C)NC(=O)[C@@H](N)Cc2c[nH]cn2)C(=O)N[C@@H](CO)C(=O)N[C@@](C)(Cc2ccccc2F)C(=O)N[C@@H](CO)C(=O)N1)C(=O)N[C@H](Cc1ccccc1)C(=O)N[C@H](C(=O)N[C@@](C)(CC(C)C)C(=O)N[C@@H](CC(C)C)C(=O)N[C@@H](CC(=O)O)C(=O)N[C@H]1CCC(=O)NCCCC[C@@H](C(=O)N[C@@H](CC(=O)O)C(=O)N[C@@H](Cc2ccccc2)C(=O)N[C@H](C(=O)N[C@H]2CCC(=O)NCCCC[C@@H](C(=O)N[C@H]3CCC(=O)NCCCC[C@@H](C(N)=O)NC(=O)[C@H]([C@@H](C)O)NC(=O)[C@H]([C@@H](C)CC)NC(=O)[C@H](CCCCN)NC3=O)NC(=O)[C@H]([C@@H](C)CC)NC(=O)[C@H](CC(C)C)NC(=O)[C@H](Cc3c[nH]c4ccccc34)NC2=O)[C@@H](C)CC)NC(=O)[C@H](C)NC(=O)[C@H](C)NC(=O)[C@H](CCCCN)NC1=O)[C@@H](C)O [Example 64] (H-H[Aib]DKS[αMePhe(2-F)]SDE[Nle][dF]T[αMeL]LDEKAAKDFIEWLIKEKITK-NH2; lactam 4-8, 16-20, 24-28, 29-33; N-terminus and C-terminus assumed) | 104% | 98% | – | 0.0398 nM | 0.0251 nM | – | 99.7% | 2 nM
3 | CCCC[C@H](NC(=O)[C@H](CCC(=O)O)NC(=O)[C@@H]1CCCCNC(=O)CC[C@H](NC(=O)[C@H](Cc2nn[nH]n2)NC(=O)C(C)(C)C(=O)NCCc2c[nH]cn2)C(=O)N[C@@H](CO)C(=O)N[C@@H](Cc2ccccc2)C(=O)N[C@@H](CO)C(=O)N1)C(=O)N[C@H](Cc1ccccc1)C(=O)N[C@H]1CCC(=O)NCCCC[C@@H](C(=O)N[C@H]2CCCCNC(=O)C[C@@H](C(=O)N[C@@H](Cc3ccccc3)C(=O)N[C@H](C(=O)N[C@H]3CCC(=O)NCCCC[C@@H](C(=O)N[C@H]4CCCCNC(=O)CC[C@@H](C(N)=O)NC(=O)[C@H]([C@@H](C)O)NC(=O)[C@H]([C@@H](C)CC)NC(=O)[C@H](CCCCN)NC4=O)NC(=O)[C@H]([C@@H](C)CC)NC(=O)[C@H](CC(C)C)NC(=O)[C@H](Cc4c[nH]c5ccccc45)NC3=O)[C@@H](C)CC)NC(=O)[C@H](CCCCN)NC(=O)[C@H](C)NC(=O)[C@H](C)NC2=O)NC(=O)[C@H](CC(=O)O)NC(=O)[C@H](CC(C)C)NC(=O)[C@H]([C@@H](C)CC)NC1=O [Example 79] ({Malonyl(2,2-Me2,histaminyl)}-[Ala(1H-tetrazol-5-yl)]ESFSKE[Nle][dF]EILDKKAAKDFIEWLIKKKITE-NH2; lactam 2-6, 10-14, 15-19, 22-26, 27-31 (inferred); C-terminus assumed) | 103% | 97.3% | – | 0.0316 nM | 0.251 nM | – | 74.2% | 3.16 nM

Further lines, results first:

Row | Emax (human GLP2 receptor) | Emax (human GLP1 receptor) | remaining at 0.5 h ([1]; t=30 mins, pH 6.5, 10 mg/ml pancreatin) | EC50 (human GLP2 receptor) | EC50 (human GLP1 receptor) | remaining at 0.25 h ([1]; FaSSIF pH 6.5 with 10 mg/ml pancreatin, t = 15 mins) | Emax (mouse GLP2 receptor) | EC50 (mouse GLP2 receptor) | SMILES
4 | 104% | 96.6% | 51.7% | – | – | – | – | – | CCCC[C@H](NC(=O)[C@H](CCC(=O)O)NC(=O)[C@@H]1CC(=O)NCCCC[C@H](NC(=O)[C@H](CC(=O)O)NC(=O)C(C)(C)NC(=O)[C@@H](N)Cc2c[nH]cn2)C(=O)N[C@@H](CO)C(=O)N[C@@H](Cc2ccccc2)C(=O)N[C@@H](CO)C(=O)N1)C(=O)N[C@H](Cc1ccccc1)C(=O)N[C@H](C(=O)N[C@@](C)(CC(C)C)C(=O)N[C@@H](CC(C)C)C(=O)N[C@@H](CC(=O)O)C(=O)N[C@H]1CCC(=O)NCCCC[C@@H](C(=O)N[C@@H](CC(=O)O)C(=O)N[C@@H](Cc2ccccc2)C(=O)N[C@H](C(=O)N[C@H]2CCC(=O)NCCCC[C@@H](C(=O)N[C@H](C(=O)N[C@@H](CCCCN)C(N)=O)[C@@H](C)O)NC(=O)[C@H]([C@@H](C)CC)NC(=O)[C@H](CC(C)C)NC(=O)[C@H](Cc3c[nH]c4ccccc34)NC2=O)[C@@H](C)CC)NC(=O)[C@H](C)NC(=O)[C@H](C)NC(=O)[C@H](CCCCN)NC1=O)[C@@H](C)O [Example 21] (H-H[Aib]DKSFSDE[Nle][dF]T[αMeL]LDEKAAKDFIEWLIKTK-NH2; lactam 4-8, 16-20, 24-28; N-terminus and C-terminus assumed)
5 | 103% | 93.5% | – | 0.0251 nM | 25.1 nM | 5.1% | – | – | CCCC[C@H](NC(=O)[C@H](CCC(=O)O)NC(=O)[C@H](CC(=O)O)NC(=O)[C@H](CO)NC(=O)[C@H](Cc1ccccc1)NC(=O)[C@H](CO)NC(=O)CNC(=O)[C@H](CC(=O)O)NC(=O)C(C)(C)NC(=O)[C@@H](N)Cc1c[nH]cn1)C(=O)N[C@H]1CC(=O)NCCCC[C@@H](C(=O)N[C@@H](CC(C)C)C(=O)N[C@@H](CCCCN)C(=O)N[C@@H](C)C(=O)N[C@@H](C)C(=O)N[C@@H](CCCCN)C(=O)N[C@@H](CC(=O)O)C(=O)N[C@@H](Cc2ccccc2)C(=O)N[C@H](C(=O)N[C@@H](CC(N)=O)C(=O)N[C@@H](Cc2c[nH]c3ccccc23)C(=O)N[C@@H](CC(C)C)C(=O)N[C@H](C(=O)N[C@@H](CCC(N)=O)C(=O)N[C@H](C(=O)N[C@@H](CCCCN)C(=O)N[C@H](C(=O)N[C@H](C(=O)N[C@@H](CC(=O)O)C(N)=O)[C@@H](C)O)[C@@H](C)CC)[C@@H](C)O)[C@@H](C)CC)[C@@H](C)CC)NC(=O)[C@H](CC(C)C)NC(=O)[C@H]([C@@H](C)CC)NC(=O)[C@H]([C@@H](C)O)NC1=O [Example 86] (H-H[Aib]DGSFSDE[Nle]DTILKLKAAKDFINWLIQTKITD-NH2; lactam 11-15; C-terminus assumed)
